Experimental data published in US6083964A, “Optical resolution of racemic aminoalkylpyridine anticonvulsants and (+) aminoalkylpyridine enantiomers as highly potent orally effective anticonvulsant drugs and excitatory amino acid antagonists” (K and K Biosciences, Inc., priority 1999, dated 2000).

Key:
hippocampal kindled rats = assay: Hippocampal kindled rat model, i.p.; format: in vivo; set-up: key to Seizure Score ± S.E.M.: Racine seizure class scale; class 5 = rearing and falling; conditions: for seizure score and afterdischarge duration (in words): hippocampal kindled rat
Excerpt: "Kindling" refers to the process whereby repeated administration of an initially subconvulsive electrical stimulus results in progressive intensification of epileptic discharge culminating in a generalized seizure. Kindling can be induced by electrical stimulation of many sites in the brain, especially in "limbic" areas, which include amygdala, hippocampus, and entorhinal cortex [Racine, R., Neurosurgery, 3, 234-252 (1978)]. Kindling is reliably produced by a one second train of 60 Hz square wave stimuli of one millisecond duration at current levels which initially produce only a slight afterdischarge (AD), but no behavioral response. Repeated stimulation, typically once daily, results in a progressive increase in AD amplitude, duration and complexity with subsequent spread to other brain areas culminating in a fully generalized motor seizure. [Racine, R. J. and Zaide, J., In "Mechanisms, the Continuing Evolution of the Limbic System Concept" (K. E. Livingston and O. Hornykiewicz, eds.), Plenum Press, pp. 457-493, 1978.
The development of kindling in the rat has been characterized by five (1 to 5) behavioral and electrographic "classes". The behavior in classes 1 (facial clonus) and 2 (head nodding) mimics that found in human complex partial seizures; the behavior in other classes would be consistent with limbic seizures evolving to generalized motor seizures. An animal is considered to be fully kindled once the enhanced sensitivity has developed, as evidenced by a class 5 seizure (rearing and falling).
The (+) AAP enantiomer, compound 1 in Table 1, was tested in the hippocampal kindled rat, by the i.p. route. […]
The (-) AAP enantiomer, compound 2 in Table 1, was also tested in the hippocampal kindled rat, by the i.p. route.

[1] = tested on: pentylenetetrazol (Metrazole) seizure threshold in mice; assay: Timed intravenous Metrazol (PTZ) seizure threshold test in mice, i.p.; format: in vivo, mouse; conditions: for time to twitch: control 33.03; for PTZ dose for the clonus component: control 37.60; for time to clonus: control 39.71; for amount of PTZ required to produce the twitch and clonus and time to twitch and time to clonus (in words): mice
Excerpt: A compound that is active in the MES test and prevents seizure spread, can lower seizure threshold at the same time. Such a compound would have proconvulsant activity while at the same time prevent generalized tonic seizures. […] The timed intravenous pentylenetetrazol (Metrazol) seizure threshold test in mice identifies those MES compounds with proconvulsant potential.
Mice were given the (+) and (-) enantiomers, compounds 1 and 2 in Table 1, intraperitoneally at the ED50 and TD50. At the time of maximal MES activity, an intravenous infusion of 0.5% heparinized solution of pentylenetetrazol (PT2) (0.34 ml/min) was started. The time to the appearance of the first myoclonic jerk (twitch) and the subsequent sustained clonic seizure (clonus) were the measured endpoints. Results were obtained for groups of ten treated and ten saline control mice and converted to the dose in mg/kg of PTZ necessary to produce the two endpoints.
Experiments were performed using three doses of 0, 36 and 149 mg/kg on each of 10 animals per dosage group. The time to "twitch" and the time to "clonus", the two components of the seizure elicited by the infusion of metrazol, were observed.

[2] = tested on: maximal electroshock seizure (MES) in rats; assay: Maximal electroshock seizure (MES) test, rats, p.o.; format: in vivo, rat (Sprague-Dawley); conditions: rat, p.o.; for ED50: MES test; for P.I. (protective index, TD50/ED50): MES
Excerpt: The (+) AAP enantiomers obtained by optical resolution of racemic AAPs and the resulting highly orally effective anticonvulsant compositions of this invention are useful in the treatment of convulsive disorders. […] A series of (+) AAP enantiomers and (-) AAP enantiomers of this invention has been evaluated for anticonvulsant activity by the intraperitoneal (i.p.) and by the oral (p.o.) route using two standard seizure models in the mouse and in the rat, the maximal electroshock seizure (MES) test and the subcutaneous pentylenetetrazol (Metrazole) seizure threshold (scMet) test. […] The following Table 2 presents the results of these anticonvulsant tests with respect to several (+) and (-) AAP enantiomeric compounds derived from optical resolution of racemic AAPs of the present invention. This Table 2 identifies the specific compounds tested by their chemical name and provides the test model, the route of administration, the animal species used, and the anticonvulsant activity and toxicity in terms of ED50 and TD50 values, (the median effective and toxic dose respectively), when intraperitoneally administered to mice, and when orally administered to rats. The Maximal Electroshock Seizure Test (MES): Maximal electroshock seizures are elicited with a 60 Hz alternating current of 50 mA intensity in mice and about 150 mA intensity in rats (5-7 times that necessary to elicit minimal electroshock seizures), delivered for 0.2 sec via corneal electrodes. A drop of 0.9% saline is instilled in the eye prior to application of the electrodes in order to […]. Abolition of the hind limb tonic extension component of the seizure is defined as protection and results are expressed as number of animals protected/number of animals tested. The Subcutaneous Pentylenetetrazol (Metrazole) Seizure Threshold Test (scMet): A 0.5% solution of 85 mg/kg of pentylenetetrazol is administered subcutaneously in the posterior midline 30 minutes or 4 hours after drug administration to the animal. […] This species will be the subject of the complete anticonvulsant quantification test evaluation as described above, but after oral (gavage) administration of the candidate compound.

[3] = 100 mg/kg i.p., 15 min, Table 3 value * significantly different from control
[4] = 100 mg/kg i.p., 45 min, Table 3 value * significantly different from control
[5] = 100 mg/kg i.p., 75 min, Table 3 value * significantly different from control
[6] = 100 mg/kg i.p., 105 min, Table 3 value * significantly different from control

## CC(Nc1ccc(Cl)cc1)c1ccncc1 (single isomer, unassigned; (+)) [Compound 1, (+) N-(4-Chlorophenyl)-1-(4-pyridyl)ethylamine]
Hippocampal kindled rats; 25 mg/kg i.p., 15 min
  Afterdischarge Duration (sec) ± S.E.M.: 76.63 ± 7.34 s
  Seizure Score ± S.E.M.: 4.63 ± 0.18
Hippocampal kindled rats; 25 mg/kg i.p., 45 min
  # Protected/# Tested: 2/8
  Afterdischarge Duration (sec) ± S.E.M.: 54.63 ± 12.54 s
  Seizure Score ± S.E.M.: 3.75 ± 0.65
Hippocampal kindled rats; 25 mg/kg i.p., 75 min
  Afterdischarge Duration (sec) ± S.E.M.: 62.75 ± 10.46 s
  Seizure Score ± S.E.M.: 4.13 ± 0.48
Hippocampal kindled rats; 25 mg/kg i.p., 105 min
  Afterdischarge Duration (sec) ± S.E.M.: 74.75 ± 6.44 s
  Seizure Score ± S.E.M.: 5.00 ± 0.00
Hippocampal kindled rats; 25 mg/kg i.p., 135 min
  Seizure Score ± S.E.M.: 4.50 ± 0.19
Hippocampal kindled rats; 50 mg/kg i.p., 15 min
  Afterdischarge Duration (sec) ± S.E.M.: 56.43 ± 7.60 s
  Seizure Score ± S.E.M.: 3.75 ± 0.53
Hippocampal kindled rats; 50 mg/kg i.p., 45 min
  # Protected/# Tested: 2/8
  Afterdischarge Duration (sec) ± S.E.M.: 63.38 ± 10.75 s
  Seizure Score ± S.E.M.: 4.13 ± 0.40
Hippocampal kindled rats; 50 mg/kg i.p., 75 min
  Afterdischarge Duration (sec) ± S.E.M.: 63.14 ± 6.38 s
  Seizure Score ± S.E.M.: 4.71 ± 0.18
Hippocampal kindled rats; 50 mg/kg i.p., 105 min
  Afterdischarge Duration (sec) ± S.E.M.: 74.57 ± 11.58 s
  Seizure Score ± S.E.M.: 4.71 ± 0.18
Hippocampal kindled rats; 50 mg/kg i.p., 135 min
  Afterdischarge Duration (sec) ± S.E.M.: 61.43 ± 12.97 s
  Seizure Score ± S.E.M.: 4.00 ± 0.69
Hippocampal kindled rats; 50 mg/kg i.p., 165 min
  Afterdischarge Duration (sec) ± S.E.M.: 73.14 ± 9.41 s
  Seizure Score ± S.E.M.: 4.57 ± 0.20
Hippocampal kindled rats; 75 mg/kg i.p., 15 min
  Afterdischarge Duration (sec) ± S.E.M.: 63.29 ± 6.70 s
Hippocampal kindled rats; 75 mg/kg i.p., 15 min, * significantly different from control
  Seizure Score ± S.E.M.: 2.86 ± 0.59
Hippocampal kindled rats; 75 mg/kg i.p., 45 min
  # Protected/# Tested: 5/7
  Afterdischarge Duration (sec) ± S.E.M.: 55.43 ± 10.39 s
Hippocampal kindled rats; 75 mg/kg i.p., 45 min, * significantly different from control
  Seizure Score ± S.E.M.: 2.43 ± 0.69
Hippocampal kindled rats; 75 mg/kg i.p., 75 min
  Afterdischarge Duration (sec) ± S.E.M.: 74.57 ± 10.36 s
Hippocampal kindled rats; 75 mg/kg i.p., 75 min, * significantly different from control
  Seizure Score ± S.E.M.: 2.86 ± 0.59
Hippocampal kindled rats; 75 mg/kg i.p., 105 min
  Afterdischarge Duration (sec) ± S.E.M.: 68.57 ± 5.52 s
Hippocampal kindled rats; 75 mg/kg i.p., 105 min, * significantly different from control
  Seizure Score ± S.E.M.: 3.86 ± 0.34
Hippocampal kindled rats; 75 mg/kg i.p., 135 min
  Afterdischarge Duration (sec) ± S.E.M.: 65.00 ± 4.12 s
  Seizure Score ± S.E.M.: 4.14 ± 0.26
Hippocampal kindled rats; 100 mg/kg i.p., 15 min
  Afterdischarge Duration (sec) ± S.E.M.: 63.43 ± 11.37 s
Hippocampal kindled rats; [3]
  Seizure Score ± S.E.M.: 2.00 ± 0.69
Hippocampal kindled rats; 100 mg/kg i.p., 45 min
  # Protected/# Tested: 6/7
  Afterdischarge Duration (sec) ± S.E.M.: 63.29 ± 4.76 s
Hippocampal kindled rats; [4]
  Seizure Score ± S.E.M.: 2.00 ± 0.58
Hippocampal kindled rats; 100 mg/kg i.p., 75 min
  Afterdischarge Duration (sec) ± S.E.M.: 75.43 ± 9.70 s
Hippocampal kindled rats; [5]
  Seizure Score ± S.E.M.: 2.29 ± 0.61
Hippocampal kindled rats; 100 mg/kg i.p., 105 min
  Afterdischarge Duration (sec) ± S.E.M.: 71.00 ± 5.35 s
Hippocampal kindled rats; [6]
  Seizure Score ± S.E.M.: 2.29 ± 0.71
Hippocampal kindled rats; Rattus norvegicus, ip, 0.75 h, hippocampal kindled rats, 45 min, 95% C.I. printed b332
  ED50: 54.9 mg/kg
Hippocampal kindled rats; dose response, hippocampal kindled rats, i.p., 45 min
  Slope: 2.93 ± 1.16
Hippocampal kindled rats; i.p.
  seizure score and afterdischarge duration (in words): significantly reduced seizure score and afterdischarge duration and the effect was dose-dependent
Hippocampal kindled rats; i.p., listed as (+) N-(4-chlorophenyl)-1-(4-pyridyl)ethylamine
  seizure score and afterdischarge duration (in words): significantly reduced from that of the control
[1]; 36 mg/kg dosage group
  time to twitch: 34.91 s
  PTZ dose for the clonus component: 46.84 mg/kg
  time to clonus: 48.56 s
[1]; 149 mg/kg dosage group, control 31.23
  PTZ dose for the twitch component: 33.31 mg/kg
[1]; 149 mg/kg dosage group
  time to twitch: 35.01 s
  PTZ dose for the clonus component: 74.13 mg/kg
  time to clonus: 77.56 s
[1]
  amount of PTZ required to produce the twitch and clonus and time to twitch and time to clonus (in words): significantly raised
[2]; listed as (1) (+) Enantiomer
  ED50: 10.2 mg/kg
  P.I. (protective index, TD50/ED50): > 49.1

## CC(Nc1ccc(Cl)cc1)c1ccncc1 (single isomer, unassigned; (-)) [Compound 2, (-) N-(4-Chlorophenyl)-1-(4-pyridyl)ethylamine]
Hippocampal kindled rats; 100 mg/kg i.p., 15 min
  Afterdischarge Duration (sec) ± S.E.M.: 69.88 ± 8.29 s
Hippocampal kindled rats; [3]
  Seizure Score ± S.E.M.: 4.63 ± 0.38
Hippocampal kindled rats; 100 mg/kg i.p., 45 min
  Afterdischarge Duration (sec) ± S.E.M.: 74.88 ± 10.31 s
Hippocampal kindled rats; [4]
  Seizure Score ± S.E.M.: 4.25 ± 0.49
Hippocampal kindled rats; 100 mg/kg i.p., 75 min
  Afterdischarge Duration (sec) ± S.E.M.: 82.50 ± 6.11 s
Hippocampal kindled rats; [5]
  Seizure Score ± S.E.M.: 4.75 ± 0.16
Hippocampal kindled rats; 100 mg/kg i.p., 105 min
  Afterdischarge Duration (sec) ± S.E.M.: 75.75 ± 11.71 s
Hippocampal kindled rats; [6]
  Seizure Score ± S.E.M.: 4.50 ± 0.50
Hippocampal kindled rats; 100 mg/kg i.p., 135 min
  Afterdischarge Duration (sec) ± S.E.M.: 82.63 ± 5.04 s
  Seizure Score ± S.E.M.: 4.75 ± 0.16
Hippocampal kindled rats; 100 mg/kg i.p., 165 min
  Afterdischarge Duration (sec) ± S.E.M.: 79.00 ± 12.92 s
  Seizure Score ± S.E.M.: 4.13 ± 0.61
Hippocampal kindled rats; 100 mg/kg i.p., 195 min
  # Protected/# Tested: 2/8
  Afterdischarge Duration (sec) ± S.E.M.: 69.25 ± 11.15 s
  Seizure Score ± S.E.M.: 3.88 ± 0.67
Hippocampal kindled rats; 100 mg/kg i.p., 225 min
  Afterdischarge Duration (sec) ± S.E.M.: 83.75 ± 5.17 s
  Seizure Score ± S.E.M.: 4.25 ± 0.16
Hippocampal kindled rats; 100 mg/kg i.p., 255 min
  Afterdischarge Duration (sec) ± S.E.M.: 73.13 ± 11.97 s
  Seizure Score ± S.E.M.: 4.00 ± 0.50
Hippocampal kindled rats; 100 mg/kg i.p., 285 min
  Afterdischarge Duration (sec) ± S.E.M.: 84.50 ± 6.76 s
  Seizure Score ± S.E.M.: 4.83 ± 0.17
Hippocampal kindled rats; i.p.
  activity in hippocampal kindled rat (in words): only moderate activity
[1]
  amount of PTZ required to produce the twitch and clonus and time to twitch and time to clonus (in words): only in modest amounts
[2]; listed as (1) (-) Enantiomer
  ED50: 25.8 mg/kg
  P.I. (protective index, TD50/ED50): > 19.4
